≈ marks a conversion by molar mass, not a printed value.
Key:
Anas platyrhynchos = settings: short-term; oral; feed; mortality
Apis mellifera = settings: acute; duration: 48 hours; oral; unspecified; mortality
Cyprinus carpio = settings: acute; duration: 96 hours; mortality
Daphnia magna = settings: chronic/long-term; duration: 21 days; reproduction
Folsomia candida = settings: chronic/long-term; duration: 28 days
Mus musculus = settings: oral
Oncorhynchus mykiss = settings: chronic/long-term; duration: 28 days; growth
Typhlodromus pyri = experiment: LR50; higher = less toxic; settings: acute; duration: 7 days; mortality

Compound: CC(C)=NOCCOC(=O)[C@@H](C)Oc1ccc(Oc2cnc3cc(Cl)ccc3n2)cc1 [Propaquizafop]
- LC50 (Anas platyrhynchos): > 827 mg/kg-day
- LD50 (Apis mellifera): > 20 µg/piece
- LD50 (Colinus virginianus; acute, oral, mortality): > 2000 mg/kg
- NOEC (Colinus virginianus; reproduction developmental): ≥ 20.2 mg/kg-day
- LC50 (Cyprinus carpio): 0.19 µg/mL (≈ 0.428 µM)
- NOEC (Daphnia magna): 0.44 mg/L
- NOEC (Folsomia candida): 5.4 mg/kg
- LD50 (Mus musculus; acute, mortality): 3010 mg/kg
- NOAEL (Mus musculus; chronic, duration: 18 months, clinical chemistry): 1.5 mg/kg-day
- NOEC (Oncorhynchus mykiss): 0.019 mg/L
- NOAEL (Rattus norvegicus; reproduction developmental, reproduction): 15 mg/kg-day
- NOAEL (Rattus norvegicus; subchronic, duration: 90 days, oral): 6.25 mg/kg-day
- LC50 (Tagia sp.; acute, mortality): > 1000 mg/kg
- NOEC (Tagia sp.; chronic/long-term, duration: 56 days): 3.9 mg/kg
- LR50 (Typhlodromus pyri): > 1.4 g/ha

Reference: EPA's ToxValDB 9.5 (doi:10.2903/j.efsa.2009.204r)
